Test results reported in PubChem BioAssay AID179 (DTP/NCI, 2004).
Activity calls are given as the source filed them.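 The calls were made as follows: active = compounds giving half or more protection of infected cells from virus-caused growth loss, again on retest; inactive = the rest.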 Where a SMILES comes first, the peptide text is derived from it. The star is where a group is joined. Cbz = O=C(OCc1ccccc1)*

Tested on: CEM cells HIV-1 protection, formazan growth assay
Test: NCI AIDS Antiviral Assay
Settings: for IC50: measured here: growth of uninfected CEM cells
Summary of the method: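 Five concentrations of each compound were applied to infected and uninfected human CEM cells. Protection from HIV-1 was judged from growth measured with a soluble formazan assay.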

Structure (SMILES) | outcome | EC50 [µM] | IC50 [µM]
CCC(C)C1NC(=O)C2CCCN2C(=O)CNC(=O)C(C)NC(=O)C(Cc2ccccc2)NC(=O)C(C(C)C)NC1=O (stereo not drawn) (cyclo(GPIVFA); configuration not given here) | inactive | – | –
CCOC(=O)c1cc(OC(=O)CC)c2c(OC)ccc(OC)c2c1 | inactive | – | –
Oc1cc2cc(-c3ccccc3)[nH]c2c2ccccc12 | – | > 200 | 31.6
Cc1nc2ccc(NC3OCC(O)C(O)C3O)cc2c(=O)n1-c1ccccc1 (stereo not drawn) | – | > 200 | 115
COc1cc2c(cc1OC)C/C(=N\O)c1cc(OC)c(OC)cc1/C=C\2 | – | > 200 | 1.74
c1ccc([P+](Cc2ccc(C[P+](c3ccccc3)(c3ccccc3)c3ccccc3)s2)(c2ccccc2)c2ccccc2)cc1 | – | 16.2 | 34.7
Nc1c(O)c(S(=O)(=O)O)c(O)c2c1C(=O)c1ccccc1C2=O | – | 200 | 234
O=C1OC(=O)C2=C1C1C=CC2O1 | – | > 1070 | 295
COC1CC(CC(C)O)CN(C#N)CCc2c1[nH]c1ccccc21 (stereo not drawn) | – | > 79.4 | > 79.4
COc1ccc(Br)c2c1CC(C(=O)O)CC2 (stereo not drawn) | – | > 457 | 234
C=CC(C)C1(CCCOCc2ccccc2)C(=S)N2CCC3(CC24CCCC14)OCCO3 (stereo not drawn) | inactive | – | –
CN1CC(O)C(C(=O)NC23CC4CC(CC(C4)C2)C3)C1 (stereo not drawn) | – | > 324 | 234
C[N+](C)(N)c1nc(N)c(C#N)c(C#N)c1C#N | – | > 200 | 33.1
CCOC(=O)c1c(N)sc(C)c1C | – | > 200 | 117
CC1(C)C(=O)C(=Cc2ccco2)C1=O | – | > 100 | > 100
COC(=O)C(=O)C1CCCC(c2nc3n(c2O)C(=N)N=N3)C1=O (stereo not drawn) | – | > 776 | > 776
c1ccc(C2=NOC(c3ccccc3)N2C23CC4CC(CC(C4)C2)C3)cc1 (stereo not drawn) | – | > 200 | > 200
Cc1c(/C=C2\CC/C(=C\c3[nH]c(C(=O)OC(C)(C)C)c(C)c3C)C2=O)[nH]c(C(=O)OC(C)(C)C)c1C | inactive | – | –
O=c1oc2ccccc2n1P(=O)(N1CCOCC1)N1CCOCC1 | – | > 251 | > 251
O=C1c2c(c3c4ccccc4n4c3c3c2c2ccccc2n3C/C=C\C4)C(=O)N1Cc1ccccc1 | inactive | – | –
CCOC(=O)CCC(NC(=O)OCc1ccccc1)C(=O)NC(CCC(=O)OCC)C(=O)OCC (stereo not drawn) (Cbz-Glu(OEt)-Glu(OEt)-OEt; configuration not given here) | – | > 200 | > 200
CC(C)(C)COc1ccc2c(c1)-c1nc-2nc2[nH]c(nc3nc(nc4[nH]c(n1)c1ccc(OCC(C)(C)C)cc41)-c1cc(OCC(C)(C)C)ccc1-3)c1ccc(OCC(C)(C)C)cc21 | – | > 8.32 | > 8.32

Structure (SMILES) | outcome | EC50 [µM] | IC50 [µM]
CC(=O)c1cc(-c2ccccn2)c(=O)n2ccccc12 | – | > 200 | 112
O=C(NS(=O)(=O)Nc1ccccc1)OC(c1ccccc1)c1ccccc1 | – | > 200 | 70.8
CN(C)CC/C(=N\Nc1c(F)c(F)c(F)c(F)c1F)c1ccccc1 | inactive | – | –
O=C1CSc2ccnc(=O)n21 | – | > 200 | > 200
O=c1c(Cl)c2cc3c(cc2c2ccccc12)nc1cccnc1n3C1CCCCC1 | – | > 39.8 | > 39.8
c1ccc2c(c1)C1=NCCN1c1ccccc1-2 | – | > 309 | 1.86
Cn1c(=O)cc(NCCc2ccccc2)[nH]c1=O | – | > 200 | 17.4
COc1c2c(cc3c1OCO3)C13C=CC(OC)CC1N(CC3)C2 (stereo not drawn) | – | > 200 | > 200
C/C(=N\O)C(CN(C)C)C(c1ccccc1)c1c(O)c2ccccc2oc1=O (stereo not drawn) | – | > 32.4 | 21.9
O=C(NO)c1ccc([N+](=O)[O-])cc1 | – | > 200 | 29.5
CC/C=C/C(=O)CC(O)(C(F)(F)F)C(F)(F)F | – | > 200 | > 200
COC(=O)C1Cc2cc3c(cc2C1=O)CCC3 (stereo not drawn) | – | > 200 | 135
CC(=O)OCC1OC(N2C(=O)NC(=O)C3C=C4CCCCC4=CC32)C(OC(C)=O)C1OC(C)=O (stereo not drawn) | – | > 200 | > 200
OCc1c2c(cc3c1CC1(C3)Cc3cc4c(c(CO)c3C1)CCC4)CCC2 | – | > 200 | 8.13
CP1(=S)CC[C@H]2C3=C(CC[C@@H]21)CC(=O)CC3 (stereo partly drawn) | inactive | – | –
O=C1C2CC=CCC2C(=O)N1n1c(Cc2ccccc2)n[nH]c1=O (stereo not drawn) | – | > 200 | > 200
COc1ccc2c(c1)C1=C(CC2)C(=O)OC1=O | inactive | – | –
CN(C)CCCNc1ccc([N+](=O)[O-])c2nc3ccccc3c(N)c12 | – | > 200 | 0.209
Nc1ccc(/C=C\c2ccc(N)cc2S(=O)(=O)O)c(S(=O)(=O)O)c1 | – | > 200 | > 200
NS(=O)(=O)c1ccc(NC(=O)c2cccc3c(Nc4ccc(S(N)(=O)=O)cc4)c4ccccc4nc23)cc1 | – | > 34.7 | 26.3
CCOC(=O)C1CCn2c(nc3c(=O)n(C)c(=O)n(C)c32)S1 (stereo not drawn) | inactive | – | –
Cn1c2ccccc2c(=O)c2c(O)cc3c(c21)CC(C1(C)CO1)O3 (stereo not drawn) | – | > 6.17 | 0.209

Structure (SMILES) | outcome | EC50 [µM] | IC50 [µM]
CSc1ncnc2c1ncn2C1CC(Oc2ccc(C)cc2)C(COc2ccc(C)cc2)O1 (stereo not drawn) | – | > 200 | 30.9
C[C@H]1[C@H](C)N1CC(O)Cn1ccnc1[N+](=O)[O-] (stereo partly drawn) | – | > 200 | > 200
O=C1/C(=C\c2ccc([N+](=O)[O-])cc2)N(S(=O)(=O)c2ccccc2)c2ncccc21 | – | > 200 | 13.5
CCCC(=O)O[C@@H]1C(C)C2(O)C3C=C(C)C(=O)[C@@]3(O)CC(CO)=C[C@H]2C2C(C)(C)C21OC(=O)CCC (stereo partly drawn) | inactive | – | –
CSc1n[nH]c(NC(=O)c2ccc(Cl)cc2)n1 | – | > 19.5 | > 19.5
C#CCCCCC#CC1CCCC1C1=CC(=O)c2ccccc21 (stereo not drawn) | – | > 100 | 6.03
CCCCCC(=O)NC(=S)Nc1nn[nH]n1 | – | > 200 | > 200
O=C(c1cccs1)N(C(=S)N1CCN(c2ccccn2)CC1)C1CCCCC1 | – | > 12.6 | 12.3
O=c1[nH]c2ccsc2c(=O)n1COCc1ccccc1 | – | > 200 | > 200
CCOC(=O)c1nnsc1N/N=C\c1ccc([N+](=O)[O-])cc1 | – | > 200 | > 200
CCOC(=O)c1cc(-c2ccccc2)c(=O)c(OC)nc1-c1ccccc1 | – | > 200 | 74.1
CC(=O)NCS(=O)(=O)O | – | > 200 | > 200
O=S(O)CCCCSSCCCCSSCCCCS(=O)O | inactive | – | –
Cc1ccc(C2NC(=S)N3C(c4ccc(C)cc4)NC(=S)N23)cc1 (stereo not drawn) | – | > 200 | 3.39
C/C=C1\[C@H]2C=C(C)C[C@@]1(N)c1ccc(=O)[nH]c1[C@@H]2O | – | > 479 | > 479
COc1ccc2nc3n(c2c1)C(c1c(Cl)cccc1Cl)SC3 (stereo not drawn) | – | > 200 | > 200
COc1cc2c(c(Oc3ccc(C)cc3)c1)CN(C)CC2 | – | > 200 | 75.9
N/C(=N\N=C(/N)C(F)(F)F)C(F)(F)F | – | > 200 | > 200
N#CCCC1C(C#N)C2(Cl)CC1(Cl)C(Cl)=C2Cl (stereo not drawn) | – | > 200 | 23.4
CC(C)(CN1CCCCC1)C(=O)/C=C/c1ccc(Cl)cc1 | – | > 36.3 | 7.94
CCOC(=O)c1ccc(N(CC/C(CN)=N/NC(N)=O)C(C)=O)cc1 | – | > 646 | 363
C=C(C)C(O)C(O)c1c(OC)ccc2ccc(=O)oc12 (stereo not drawn) | – | > 174 | > 174

Structure (SMILES) | outcome | EC50 [µM] | IC50 [µM]
O=c1c2cc(S(=O)(=O)Nc3ccc(Cl)cc3Cl)ccc2ncn1NS(=O)(=O)c1cccc2ccccc12 | – | > 200 | 33.1
CCOC(=O)C1C(=O)CC(O)(OCC)C(C(=O)OCC)C1c1ccc(OC)cc1 (stereo not drawn) | – | > 200 | > 200
O=C1NC(N2CCOCC2)=N/C1=C\c1ccccc1O | – | > 200 | > 200
CCCNC(=O)Cn1c2c(c3ccccc31)CCCC2 | – | > 200 | 69.2
CC(=O)OC1CC2C(C)(C)C(=O)C=C[C@]2(C)C2CCC3(C)C(=CC(=O)C3c3ccoc3)[C@]12C (stereo partly drawn) | inactive | > 22.4 | 14.1
Cc1cc(=O)oc2c(O)c(O)ccc12 | – | > 263 | 141
O=C(O)C1COCN1C(=O)c1cccnc1SSc1ncccc1C(=O)N1COCC1C(=O)O (stereo not drawn) | – | > 200 | > 200
Cc1cn(C2CC(N=[N+]=[N-])C(COC(=O)C(O)[C@@]3(O)CC[C@H]4[C@@H]5CCC6=CC(=O)C=C[C@]6(C)[C@H]5[C@@H](O)C[C@@]43C)O2)c(=O)[nH]c1=O (stereo partly drawn) | – | 0.708 | > 200
Cn1c(C(O)(Cc2ccccn2)Cc2ccccn2)cc2ccccc21 | – | > 97.7 | 72.4
CCN(CC)CCNc1ccc([N+](=O)[O-])c2nc3ccc(OC)cc3c(NCCN(CC)CC)c12 | – | > 100 | 0.178
OCC1OC(c2ccccc2)CC1O (stereo not drawn) | – | > 200 | > 200
N#CC(C(=O)C(=O)Nc1c(Cl)cccc1Cl)c1ccccc1 (stereo not drawn) | inactive | – | –
Cc1cc2c(c(C(=O)NCC(=O)O)c1)Oc1c(cc(C)cc1C(=O)NCC(=O)O)S2 | – | > 200 | > 200
Cc1cc(NS(=O)(=O)c2ccc(N=Nc3cc(N=Nc4ccc(S(=O)(=O)Nc5cc(C)nc(C)n5)cc4)c4c(NC(=O)C(Cl)Cl)cccc4c3OC(=O)C(Cl)Cl)cc2)nc(C)n1 (tested in a mixture with another compound) | inactive | – | –
Cc1ccc(S(=O)(=O)NCCCSCCO)cc1 | – | > 871 | 5.75
CC1(C)OP(=O)(c2ccccc2)C=C1Sc1ccc([N+](=O)[O-])cc1[N+](=O)[O-] (stereo not drawn) | – | 44.7 | 105
O=C(CCC(NC(=O)OCc1ccccc1)C(=O)OCc1ccccc1)Nc1cccc(OCc2ccccc2)c1 (stereo not drawn) | – | > 200 | 35.5
O=C(O)CN1CCNCCN(CC(=O)O)CC1 | – | > 100 | 9.77
CSc1nc(NC2OC(COC(C)=O)C(OC(C)=O)C(OC(C)=O)C2OC(C)=O)c(-c2csc(N)n2)c(=O)n1C (stereo not drawn) | inactive | – | –
COc1ccc2c(c1)CCC1=C2C=C[P+]1(C)C | inactive | – | –
